Numbering of substitutions follows the chain as printed. Read-outs that look alike come from different tables or passages of the source.
What was measured:
[1] = molecular target: T1, OR5K1 L255^6.51A (Homo sapiens, UniProt Q8NHB7, L255A); test: cAMP-luminescence concentration-response assay, mutant OR5K1 L255^6.51A in HEK-293 cells; type: cell-based; conditions: OR5K1 L255^6.51A mutant; mean ± SD, n = 4
T1 construct: The protein-coding region of human OR5K1 (NM_001004736.3); IL-6-HaloTag (from expression plasmid pFN210A) (N); expressed in transfected cells; host or cells: HEK-293
T1 sequence (Q8NHB7 1-308 L255A): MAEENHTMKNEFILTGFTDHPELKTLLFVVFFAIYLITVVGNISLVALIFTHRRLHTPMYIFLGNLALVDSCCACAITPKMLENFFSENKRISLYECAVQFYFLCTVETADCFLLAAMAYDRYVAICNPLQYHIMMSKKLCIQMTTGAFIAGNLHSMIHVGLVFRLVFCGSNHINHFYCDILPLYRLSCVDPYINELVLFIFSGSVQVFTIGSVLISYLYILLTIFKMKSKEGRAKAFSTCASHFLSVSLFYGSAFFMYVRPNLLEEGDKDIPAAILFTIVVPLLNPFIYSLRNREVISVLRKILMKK
Description: (§1) Mutants L104^3.32 and L255^6.51 were generated by PCR-based site-directed mutagenesis in two steps. Step one PCR was performed in two amplifications: one with the forward vector-internal primer and the reverse mutation-primer and the other with the forward mutation-primer and the reverse vector-internal primer. Amplification was performed with the touchdown approach described above. Both PCR amplicons were then purified and used as a template for step two. The two overlapping amplicons were annealed using the following touchdown program: denaturation (98 °C, 3 min), ten cycles containing denaturation (98 °C, 30 s), annealing (start 60 °C, 30 s), and extension (72 °C, 2 min). […]
(§2) We utilized HEK-293 cells,[101] a human embryonic kidney cell-line, as a test cell system for the functional expression of ORs.[102] […] The utilized pGloSensor-22F is a genetically engineered luciferase with a cAMP-binding pocket, allowing for measurements of a direct cAMP-dependent luminescence signal. […]
(§3) Concentration–response assays were measured 42 h post-transfection as described previously.[102] […] For luminescence measurements, the GloMax Discover microplate reader (Promega, Madison, USA) was used. After incubation for 50 min in the dark, the basal luminescence signal of each well was recorded thrice. […]

[2] = molecular target: T2, OR5K1 L104^3.32A (Homo sapiens, UniProt Q8NHB7, L104A); test: cAMP-luminescence concentration-response assay, mutant OR5K1 L104^3.32A in HEK-293 cells; type: cell-based; conditions: OR5K1 L104^3.32A mutant; mean ± SD, n = 4
T2 construct: The protein-coding region of human OR5K1 (NM_001004736.3); IL-6-HaloTag (from expression plasmid pFN210A) (N); expressed in transfected cells; host or cells: HEK-293
T2 sequence (Q8NHB7 1-308 L104A): T1 sequence (Q8NHB7 1-308 L255A) with L104A, A255L
Description: as §1, §2, §3

[3] = molecular target: T3, OR5K1 (Homo sapiens, UniProt Q8NHB7); set-up: method as in PMID 34047404; conditions: cited from earlier work; for EC50: OR5K1 agonist activity, data retrieved from the literature
T3 construct: The protein-coding region of human OR5K1 (NM_001004736.3); IL-6-HaloTag (from expression plasmid pFN210A) (N); expressed in transfected cells; host or cells: HEK-293
T3 sequence (Q8NHB7 1-308): T1 sequence (Q8NHB7 1-308 L255A) with A255L

[4] = molecular target: T3, OR5K1; test: cAMP-luminescence (GloSensor) concentration-response assay, OR5K1 transiently expressed in HEK-293 cells; type: cell-based; conditions: OR5K1 agonist activity, tested in this work, mean ± SD, n = 4, last tested concentration 300 μM
Description: We utilized HEK-293 cells,[101] a human embryonic kidney cell-line, as a test cell system for the functional expression of ORs.[102] Cells were cultivated at 37 °C, 5% CO2, and 100% humidity in 4.5 g/L D-glucose containing DMEM with 10% fetal bovine serum, 2 mM L-glutamine, 100 U/mL penicillin, and 100 U/mL streptomycin. Cells were cultured in a 96-well format (Nunclon Delta Surface, #136102; Thermo Fisher Scientific, Schwerte, Germany) at 12,000 cells/well overnight. Then, cells were transfected utilizing 0.75 μL/well ViaFect (#E4981, Promega, USA) with the following constructs: 100 ng/well of the respective OR construct, 50 ng/well of chaperone RTP1S,[103] 50 ng/well of the G protein subunit Gαolf,[104],[105] olfactory G protein subunit Gγ13,[106] and 50 ng/well of pGloSensor-22F (Promega, Madison, USA).[107] The utilized pGloSensor-22F is a genetically engineered luciferase with a cAMP-binding pocket, allowing for measurements of a direct cAMP-dependent luminescence signal. All measurements were mock-controlled, i.e. pFN210A without OR was transfected in parallel.
as §3, with “thrice. Then the odorant, serially diluted in the physiological salt buffer with added Pluronic PE-10500 (BASF, Ludwigshafen, Germany), was applied to the cells, and luminescence was measured thrice after 10 min of incubation time.” for “thrice.”
The raw luminescence data obtained from the GloMax Discover microplate reader detection system were analyzed for concentration/response assays by averaging both data points of basal levels and data points after odorant application. For a given luminescence signal, the respective basal level was subtracted, and the now corrected data set was normalized to the maximum amplitude of the reference. […]

| Structure (SMILES) | EC50 [3] | also measured |
| --- | --- | --- |
| CCc1ncc(C)nc1CC [Compound 1, 2,3-Diethyl-5-methylpyrazine] | 10.3 ± 1.06 µM | EC50 [1]: 478 ± 185 µM; EC50 [2]: 525 ± 92.3 µM |
| CCc1nc(C)cnc1C [Compound 2, 2-Ethyl-3,6-dimethylpyrazine] | – | EC50 ([4]; read-out: EC50): 14.8 ± 6.69 µM |
| C=CCc1ccc(OC)c(OC)c1 [Compound 3, Methyl eugenol] | 62.2 ± 1.45 µM | – |
| CCc1nccnc1CC [Compound 4, 2,3-Diethylpyrazine] | 94.4 ± 11.9 µM | – |
| CCc1nccnc1OC [Compound 5, 2-Ethyl-3-methoxypyrazine] | 97.4 ± 15.6 µM | – |
| Cc1cnc(C)c(C)n1 [Compound 6, 2,3,5-Trimethylpyrazine] | 139 ± 7.08 µM | – |
| CCc1nccnc1C [Compound 7, 2-Ethyl-3-methylpyrazine] | 538 ± 96.8 µM | – |
| COc1nccnc1C(C)C [Compound 9, 2-Isopropyl-3-methoxypyrazine] | 146 ± 8.83 µM | – |
| CCc1nccnc1C(C)=O [Compound 10, 2-Acetyl-3-ethylpyrazine] | 528 ± 167 µM | – |
| CC(=O)c1nccnc1C [Compound 11, 2-Acetyl-3-methylpyrazine] | 531 ± 27.6 µM | – |
| Cc1cncc(C)n1 [Compound 12, 2,6-Dimethylpyrazine] | 544 ± 19.5 µM | – |
| CCc1ncc(C)nc1C [Compound 13, 2-Ethyl-3,5-dimethylpyrazine] | – | EC50 [4]: could not be measured to saturation; EC50 ([4]; read-out: EC50): > 300 µM |
| c1cnccn1 [pyrazine, reference compound] | – | activation of OR5K1 [3]: does not activate |
